{"source": "patent US20230151049A1", "about": "“Compounds Useful in HIV Therapy” (priority 2020, published 2023)", "experiment": "in vivo", "settings": "single IM Example 43A 60 mg/kg", "method_in_brief": "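Three male Wistar Han rats (200-250 g), not fasted, received a single intramuscular gastrocnemius injection of prodrug suspension at 20 mg/kg EFdA equivalent. Tail-vein blood was taken into NaF/Na2EDTA, mixed 1:1 with 100 mM ammonium acetate pH 4, frozen, and analysed by LC-MS/MS.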"}
{"smiles": "C#C[C@]1(COP(=O)(N[C@@H](Cc2ccccc2)C(=O)OCCCCCCCCCCCCCCCCCCCC)Oc2ccccc2)O[C@@H](n2cnc3c(N)nc(F)nc32)C[C@@H]1O", "note": "(single isomer, unassigned) [Example 43A]", "values": [{"measurement": "Mean concentration of EFdA", "setting": "day 1", "result": "BQL (BQL = below quantification limit, 0.3 ng/mL for both)"}, {"measurement": "Mean concentration of EFdA", "setting": "day 7", "result": "BQL (BQL = below quantification limit, 0.3 ng/mL for both)"}, {"measurement": "Mean concentration of EFdA", "setting": "day 14", "result": "BQL (BQL = below quantification limit, 0.3 ng/mL for both)"}, {"measurement": "Mean concentration of EFdA", "setting": "day 21", "result": "BQL (BQL = below quantification limit, 0.3 ng/mL for both)"}, {"measurement": "Mean concentration of EFdA", "setting": "day 28", "result": "BQL (BQL = below quantification limit, 0.3 ng/mL for both)"}, {"measurement": "Mean concentration of EFdA", "setting": "day 35", "result": "BQL (BQL = below quantification limit, 0.3 ng/mL for both)"}, {"measurement": "Mean concentration of EFdA", "setting": "day 42", "result": "BQL (BQL = below quantification limit, 0.3 ng/mL for both)"}, {"measurement": "Mean concentration of EFdA", "setting": "day 49", "result": "BQL (BQL = below quantification limit, 0.3 ng/mL for both)"}, {"measurement": "Mean concentration of EFdA", "setting": "day 56", "result": "BQL (BQL = below quantification limit, 0.3 ng/mL for both)"}, {"measurement": "Mean concentration of EFdA", "setting": "day 63", "result": "BQL (BQL = below quantification limit, 0.3 ng/mL for both)"}, {"measurement": "Mean concentration of EFdA", "setting": "day 70", "result": "BQL (BQL = below quantification limit, 0.3 ng/mL for both)"}, {"measurement": "Mean concentration of EFdA", "setting": "day 77", "result": "BQL (BQL = below quantification limit, 0.3 ng/mL for both)"}, {"measurement": "Mean concentration of EFdA", "setting": "day 84", "result": "BQL (BQL = below quantification limit, 0.3 ng/mL for both)"}, {"measurement": "concentration at 1 day", "setting": "male, Wistar Han, rat, in vivo, day 1, read-out: Mean concentration of Example 43A", "result": 89.3, "unit": "ng/mL"}, {"measurement": "concentration at 7 day", "setting": "male, Wistar Han, rat, in vivo, day 7, read-out: Mean concentration of Example 43A", "result": 25.4, "unit": "ng/mL"}, {"measurement": "concentration at 14 day", "setting": "male, Wistar Han, rat, in vivo, day 14, read-out: Mean concentration of Example 43A", "result": 22.7, "unit": "ng/mL"}, {"measurement": "concentration at 21 day", "setting": "male, Wistar Han, rat, in vivo, day 21, read-out: Mean concentration of Example 43A", "result": 22.1, "unit": "ng/mL"}, {"measurement": "concentration at 28 day", "setting": "male, Wistar Han, rat, in vivo, day 28, read-out: Mean concentration of Example 43A", "result": 11.3, "unit": "ng/mL"}, {"measurement": "concentration at 35 day", "setting": "male, Wistar Han, rat, in vivo, day 35, read-out: Mean concentration of Example 43A", "result": 12.7, "unit": "ng/mL"}, {"measurement": "concentration at 42 day", "setting": "male, Wistar Han, rat, in vivo, day 42, read-out: Mean concentration of Example 43A", "result": 10.4, "unit": "ng/mL"}, {"measurement": "concentration at 49 day", "setting": "male, Wistar Han, rat, in vivo, day 49, read-out: Mean concentration of Example 43A", "result": 7.22, "unit": "ng/mL"}, {"measurement": "concentration at 56 day", "setting": "male, Wistar Han, rat, in vivo, day 56, read-out: Mean concentration of Example 43A", "result": 8.67, "unit": "ng/mL"}, {"measurement": "concentration at 63 day", "setting": "male, Wistar Han, rat, in vivo, day 63, read-out: Mean concentration of Example 43A", "result": 12.5, "unit": "ng/mL"}, {"measurement": "concentration at 70 day", "setting": "male, Wistar Han, rat, in vivo, day 70, read-out: Mean concentration of Example 43A", "result": 13.1, "unit": "ng/mL"}, {"measurement": "concentration at 77 day", "setting": "male, Wistar Han, rat, in vivo, day 77, read-out: Mean concentration of Example 43A", "result": 13.5, "unit": "ng/mL"}, {"measurement": "concentration at 84 day", "setting": "male, Wistar Han, rat, in vivo, day 84, read-out: Mean concentration of Example 43A", "result": 7.94, "unit": "ng/mL"}]}
